From a melting point compilation (Tetko et al.; mined from patent text by program, amines drawn as free bases though some values may be those of a salt) come the findings set out here.

Broadly, the melting point is the temperature, or range, at which the solid turns liquid.

Regarding `O=c1ccc(S(=O)(=O)c2cc3ccc(Cl)cc3[nH]2)n[nH]1`, the melting point is > 250 °C.

On to `CCCOc1nc2ccccc2[nH]1`, for which the melting point lay in the range of 163 to 164 °C.

The compound `CC(OCc1cc2cc(Cl)ccc2n1S(=O)(=O)c1ccc2c(c1)OCCN2C)C(=O)O` (stereo not given) returned a melting point of 68 °C.

For the compound `CCNC(=O)c1ccc(-c2ccc3nnn(Cc4ccc5ncccc5c4)c3n2)cc1Cl`, the melting point was in the range of 187 to 190 °C.

In turn, `CC(C)=CCN(CC=C(C)C)Cc1noc(-c2ncn3c2[C@@H]2CCCN2C(=O)c2c(Cl)cccc2-3)n1` registered a melting point of 137 to 140 °C.

The compound `CCCCc1nc2c(N)nc3cccnc3c2n1CCNC(=O)c1cc(C(C)(C)C)c(O)c(C(C)(C)C)c1` returned a melting point of 248 to 250 °C.

`CCCCCS(=O)(=O)NC(=O)/C=C/c1cc(OC2CCOCC2)nn1Cc1ccc(C(F)(F)F)cc1Cl` came in with a melting point of 160 to 161 °C.

In turn, `CC(C)c1nc(-c2ccccc2)c(C(C)C)c(-c2ccc(F)cc2)c1CO` showed a melting point of 244 to 246 °C.

`CCOC(=O)c1c(CN(CC)CC)nc2sc3c(c2c1-c1ccc(OC)c(OC)c1)CN(C(=O)c1ccc(Cl)cc1)CC3` showed a melting point of 91 to 92 °C.

`Cn1ncnc1COc1nn2cnnc2cc1-c1ccsc1`: the melting point is 220 to 222 °C.

Compound `CC1NC(=O)NN=C1c1ccc(N)c(Br)c1` (stereo not given) yielded a melting point of 222 to 224 °C.

On to `CC(=O)OC1CSC(Oc2cccc(-c3ccncc3)c2)C(OC(C)=O)C1OC(C)=O` (stereo not given), for which the melting point was 112 °C.

With `CC1(C)OCc2cc([C@@H](O)C(=O)N[C@H]3CCc4ccc(O)cc4C3)ccc2O1`, the melting point fell in the range of 169 to 170 °C.

In turn, `OCCC(=C(c1ccccc1)c1ccccc1)c1ccccc1` yielded a melting point of 117 to 119 °C.

In turn, `CC(C)(C)C(=O)Oc1cc([N+](=O)[O-])cc([N+](=O)[O-])c1O` displayed a melting point of 132 to 135 °C.

In the case of `CCOc1c(/C=C/c2ccc(NS(C)(=O)=O)cc2)cc(-n2ccc(=O)[nH]c2=O)cc1C(C)(C)C`, the melting point fell in the range of 265 to 266 °C.

On to `CC(=O)N[C@@H](CSC(=O)c1ccccc1)C(=O)NCCSC(=O)C(C)C`, for which the melting point fell in the range of 137 to 138 °C.

The compound `COc1ccc2c(c1)Cc1ccc(C(=O)O)cc1O2` gave a melting point of 259 to 261 °C.

In turn, `O=C(O)CC(CC(=O)O)c1cc(C(=O)O)n(CC(=O)O)c1` had a melting point of 130 °C.

Turning to `CC(=O)Nc1nc(NC(C)=O)nc(C2CCC(c3ccccc3)CC2)n1` (stereo not given), the melting point is 235 to 236 °C.

Consider `COc1cc2c(c(Cl)c1Cl)S(=O)(=O)C(c1ccccc1)=C2C`, for which the melting point is 197 to 199 °C.

For `O=C1C2CCCC1CN(Cc1ccccc1)C2`, the melting point fell in the range of 48 to 50.5 °C.

`O=C(Nc1cccc(Br)c1)Oc1ccc2c(c1)CCCN2Cc1ccccc1` displayed a melting point of 117 °C.

For `Cn1nc(-c2ccc(F)cc2)c(-c2ccncc2)c1CCCc1ccc(N)cc1`, the melting point lay within 80.5 to 81.1 °C.

Consider `COc1ccc(-n2c(SC)nc3cc(OC)cc(OC)c3c2=O)cc1`, for which the melting point lay in the range of 212 to 215 °C.

`Nc1ccccc1-c1nc2cccnc2o1` came in with a melting point of 142 to 144 °C.

`CCOC(=O)CC(C#N)(CC(=O)OCC)c1ccccn1`: the melting point was 86.5 to 88 °C.

With `N#CSCC(I)=C(I)CCl`, the melting point is 76 to 78 °C.

In turn, `COc1cc2nc(C)[nH]c(=O)c2cc1OCCCN1CCOCC1` returned a melting point of 236 to 238 °C.

As to `CCc1cc(OCc2ccc3oc(-c4ccccc4C(=O)OC)nc3c2)c2c(n1)CCCC2`, the melting point is 131 to 132 °C.

In turn, `COc1ccc(-c2cc(=S)n(Cc3ccc(F)cc3)nc2-c2ccc(OC)cc2)cc1` yielded a melting point of 137 to 138 °C.

`COC(=O)CCCc1cc2cc(Cl)ccc2n1S(=O)(=O)c1cccc2ccccc12`: the melting point lay within 94 to 97 °C.

Regarding `CCS(=O)(=O)C1C(OC)(OC)CC2C3CCC4=CC(=O)C=CC4(C)C3(F)C(O)CC21C` (stereo not given), the melting point lay within 268 to 270 °C.

The compound `Fc1ccc([C@H]2CC[C@H](N3CCN(Cc4ccccc4)CC3)CC2)c2ccccc12` registered a melting point of 130 to 132 °C.

Regarding `O=C1CCN(C2c3ccccc3COc3ccc(Br)cc32)CC1` (stereo not given), the melting point lay in the range of 196 to 200 °C.

For `CCCCCC(CC(=O)O)c1cc(C=O)c(OC)cc1OC` (stereo not given), the melting point was in the range of 110 to 112 °C.

The compound `Cc1nc2cc(Br)ccc2s1` came in with a melting point of 84 to 85 °C.

As for `O=C(O)Cn1c(-c2ccccc2Cl)nc2cccnc21`, the melting point fell in the range of 227 to 228 °C.

`CNC(=O)c1cc(O)cc2c1N(C)C1N(C)CCC21C` (stereo not given) registered a melting point of 202 to 204 °C.

For the compound `CCCN(Cc1ccc(-c2ccccc2-c2nc(=O)s[nH]2)cc1)c1nc2ccccc2cc1C(=O)O`, the melting point lay in the range of 118 to 124 °C.

In the case of `Cc1ccc(C)n1-c1ccc(I)cc1F`, the melting point was 68 to 70 °C.

`NC(N)=Nc1nc(N2CCOCC2)nc2ccccc12` registered a melting point of 197 °C.

Consider `N#CC=Cc1ccc(Cl)s1`, for which the melting point was 41 to 43 °C.

As to `CC1CCCCC1C(=O)Nc1ccc(-c2cnc(-c3ccc(NC(=O)c4cccnc4)cc3)[nH]2)cc1` (stereo not given), the melting point lay in the range of 226 to 228 °C.

`O=C(O)C=NOC(CCCc1ccc(Cl)cc1)c1ccc(OCc2ccc3ccccc3n2)cc1` (stereo not given) displayed a melting point of 174 to 177 °C.

Compound `CC(C)Nc1ncnc2cscc12` had a melting point of 230 °C.

In turn, `O=[N+]([O-])c1cc2ccccc2nc1Nc1ccc(O)cc1` displayed a melting point of 190 °C.

On to `O=C1N(Cc2cc(-c3ccc(Cl)cc3)oc2C(F)(F)F)c2ccccc2C12COc1cc3c(cc12)OCO3` (stereo not given), for which the melting point fell in the range of 114 to 116 °C.

Turning to `OCc1cn(-c2ccc(SC(F)(F)F)c(Cl)c2)cn1`, the melting point lay in the range of 105 to 106 °C.

In the case of `COc1ccc(-c2cc(C(=O)NCc3ccccn3)c(=O)n(CC3CCCC3)n2)cc1`, the melting point was in the range of 127 to 128 °C.

`CN1C(=O)N(CC(COc2ccc(-c3ccc(Cl)cc3)cc2)N(O)C=O)C(=O)C1(C)C` (stereo not given): the melting point lay within 124 to 125 °C.

`O=C(O)C1=Cc2cc(Cl)c(Oc3cccnc3)cc2OC1C(F)(F)F` (stereo not given) yielded a melting point of 238 to 239 °C.

The compound `CCCC(c1ccc(C)cc1)n1c(C(=O)OC)cnc1S` (stereo not given) yielded a melting point of 209 to 211 °C.

Consider `O=C(O)CC(O)c1ccc(-c2ccc(Cl)c(Cl)c2)o1` (stereo not given), for which the melting point lay in the range of 95 to 96 °C.

As for `Cn1c2cc(Cl)ccc2c2c(C(=O)O)nc(-c3ccccc3)nc21`, the melting point was in the range of 208 to 209 °C.

`CC(C)(CC(=O)O)C(Cl)CC(Cl)(Cl)C(F)(F)F` (stereo not given) returned a melting point of 61 °C.

On to `COC(=O)c1cccc(Cl)c1NC(C)=O`, for which the melting point was in the range of 135 to 136 °C.

For the compound `CCCc1c(OCCCOc2cccc(N)c2C#N)ccc(C(C)=O)c1O`, the melting point lay in the range of 120 to 122 °C.

`COC(=O)c1cnc(OCc2ccccn2)nc1NCc1ccc(OC)c(Cl)c1`: the melting point lay in the range of 135 to 136 °C.

In the case of `O=C1NCCCCC1Br` (stereo not given), the melting point lay within 109 to 111 °C.

Take `CC(C)N(Cc1nc(-c2ncn3c2CN(C)C(=O)c2ccccc2-3)no1)C(C)C`: the melting point is 117 to 119 °C.

Compound `CCCCc1nc(Cl)c(C(=O)OC)n1Cc1ccc2oc(-c3ccccc3-c3nnn[nH]3)c(Br)c2c1` registered a melting point of 110 to 112 °C.

`Cc1ccc(CC(CS)C(=O)Nc2cccc(C(=O)O)c2)cc1` (stereo not given) came in with a melting point of 188 to 190 °C.

`CCOC(=O)c1cc2nc(C)oc2nc1C(=O)OCC` returned a melting point of 101 to 103 °C.

Take `CCOC(=O)c1sc(C)nc1Oc1cccc(C(F)(F)F)c1`: the melting point is 56 °C.

Take `COCCc1nc2c(N)nc3ccccc3c2n1CCCNC(=O)c1cc2ccccc2cn1`: the melting point worked out at 198 °C.

Compound `NS(=O)(=O)c1ccc(C(=O)NCc2ccccc2)s1` returned a melting point of 203 °C.

In turn, `CC1(C)Oc2ccc(C#N)cc2[C@@H](NC(=O)Nc2cccc(-c3cnc[nH]3)c2)[C@@H]1O` registered a melting point of 170 to 180 °C.

For the compound `O=C(O)c1ccc(NCCOc2ccc(Br)cc2)cc1`, the melting point is 190 to 192 °C.

Turning to `Cc1c2c(c(C)c3c1NC(C)(C)C3)OC(C)(CN1CCC(N(C)c3nc4ccccc4s3)CC1)C2` (stereo not given), the melting point fell in the range of 147 to 150 °C.

Turning to `COc1ccc(C2=NN(Cc3ccc(C(=O)NC4CCCC4)cc3)C(=O)CC2)cc1OC`, the melting point worked out at 147 °C.

In turn, `N=C(NO)c1ccc(-c2ccc(-c3ccc(C(=N)NO)o3)o2)cc1` gave a melting point of 205 to 206 °C.

Consider `COc1cc(C(O)C#N)ccc1O` (stereo not given), for which the melting point fell in the range of 80 to 81 °C.

Consider `C#CCOc1ccc(C=NOC)cc1OC`, for which the melting point was in the range of 68 to 69 °C.

In turn, `Oc1cccc(CCc2nc3ccccc3s2)c1` came in with a melting point of 129 to 130 °C.

For `NS(=O)(=O)c1ccccc1-c1ccno1`, the melting point was in the range of 132 to 135 °C.

`O=C(c1ccco1)C1C(=O)N(c2nccs2)c2ccccc21` (stereo not given) displayed a melting point of 156 to 157 °C.

`CCC(C)(C)N1C(=O)C2(COc3cc4c(cc32)CCO4)c2ccccc21` (stereo not given): the melting point was in the range of 128 to 129 °C.

Regarding `Cc1c[nH]c2c(C=O)cccc12`, the melting point lay in the range of 77 to 79 °C.

On to `CCN(CC)c1ccc(C2(c3ccc(N(C)C)cc3N(C)C)OC(=O)c3c(Cl)c(Cl)c(Cl)c(Cl)c32)cc1` (stereo not given), for which the melting point fell in the range of 206 to 208 °C.

With `Cc1c(Cc2cc(Cl)cc(Cl)c2)c(C(=O)O)nn1CCO`, the melting point lay in the range of 241 to 242 °C.

`N#Cc1c(NCc2ccc(N)cc2)n[nH]c1N` yielded a melting point of 168 to 170 °C.

The compound `O=C1N[C@H](c2ccco2)[C@@H]1O` displayed a melting point of 133 to 135 °C.

In turn, `Cc1oc(C=Cc2cccc(C(F)(F)F)c2)nc1CC(=O)O` showed a melting point of 157 to 158 °C.

On to `CC(C)(C)c1cc(-c2cc(C(C)(C)C)cc(-n3nc4ccccc4n3)c2O)c(O)c(-n2nc3ccccc3n2)c1`, for which the melting point turned out to be 234 °C.

`CCOc1nc(NCc2ccco2)nc(Nc2ccc(O)cc2)n1` had a melting point of 45 °C.

`O=C(O)c1cccc(NCc2cccnc2)c1C(=O)O` registered a melting point of 231 to 233 °C.

`O=C1CC(OC(CBr)CBr)N1` (stereo not given) displayed a melting point of 80 to 80.5 °C.

As for `COc1ccc(-c2c(C#N)nn(-c3c(Cl)cc(C(F)(F)F)cc3Cl)c2N)cc1OC`, the melting point is 250 °C.

`CCOC(=O)C1=C(C#N)Nc2ccnc(OC(C)C)c2C1c1ccccc1C(F)(F)F` (stereo not given) had a melting point of 138 to 140 °C.
